According to patent publication US8309546B2, “Morpholinopurine derivatives” (Daiichi Sankyo Company, Limited, priority 2008, dated 2012):

How the values were obtained:
PI3Kα = PI3Kα (Homo sapiens, UniProt P42336); assay: PI3K kinase activity inhibition assay; format: biochemical; settings: Kinase-Glo Plus ATP detection, read-out: IC50 against PI3K
Method in brief: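 PI3Kα (50 nM solution) was reacted with 30 μM ATP and 45 μM PIP2 solutions, each in HEPES pH 7.4 with MgCl2 and DTT, for 2 h at room temperature. Remaining ATP was measured by Kinase-Glo Plus luminescence, and inhibition was derived from ATP consumed. IC50 was taken from curve fitting of the serial dilutions.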

[1] = test system: human endometrial cancer cell strain AN3CA; assay: Cell growth inhibition test (MTT), AN3CA; format: cell-based; settings: AN3-CA, 72 h, 3 days culture, read-out: concentration exhibiting anti-cell effect (GI50)
Method in brief: (§1)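 MTT read-out at 540 nm after 4 h formazan formation gives living cell count following 3-day compound exposure at 37° C, 5% CO2. Seeding: 5000 AN3CA, 1000 IGROV1, 5000 HT29 cells/well. Growth rate T/C % = 100×[(B−C)/(A−C)], with C taken before dosing; GI50 = concentration giving 50% growth.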

[2] = test system: human colon cancer cell strain HT29; assay: Cell growth inhibition test (MTT), HT29; format: cell-based; settings: HT-29, 72 h, HT29, 3 days culture, read-out: concentration exhibiting anti-cell effect (GI50)
Method in brief: as §1

[3] = test system: Akt (threonine 308) phosphorylation in AN3CA tumor; assay: Akt phosphorylation inhibition assay in xenograft; format: in vivo, female nude mouse; settings: Mus musculus, AN3-CA, oral, 6 hr after dosing
Protocol: (§2) A tumor section was prepared from a human endometrial cancer cell strain AN3CA tumor mass formed in a female nude mouse as subcutaneously transplanted tumor and a xenograft model was prepared by subcutaneously transplanting the tumor to a female nude mouse. The test compound at a predetermined concentration was orally administered. After a predetermined time, the anesthetized mouse was exsanguinated to death, and a tumor mass was isolated. The tumor mass was crushed using a lysis buffer containing inhibitors of proteases and dephosphorylating enzymes (Cell Signaling Technology, Inc.) and the supernatant was separated by centrifugation to obtain a tumor extract. The protein content of the tumor extract was measured using DC Protein Assay Kit (Bio-Rad Laboratories, Inc.) and phosphorylation conditions of Akt (threonine 308) and S6 (serine 235 and 236) were analyzed by a usual technique of western blotting using tumor extracts containing the same amount of protein. The primary antibody and the secondary antibody used for detecting each molecule were rabbit anti-phospho-Akt(T308) antibody and HRP-labeled goat anti-rabbit IgG antibody or mouse anti-phospho-S6(S235/236) antibody and HRP-labeled sheep anti-mouse IgG antibody.
(§3) The signal intensity detected using an image analyzer Typhoon 9400 (GE Healthcare) was quantified, and the phosphorylation inhibition rate (%) was calculated by the following formula. Phosphorylation inhibitory activity (%) of Akt and S6 after treatment with test compound=100−100×(B/A) A: Signal intensity derived from phosphorylated protein in tumor mass isolated from mouse untreated with test compound B: Signal intensity derived from phosphorylated protein in tumor mass isolated from mouse treated with test compound

[4] = test system: S6 (serine 235 and 236) phosphorylation in AN3CA tumor; assay: S6 phosphorylation inhibition assay in xenograft; format: in vivo, female nude mouse; settings: Mus musculus, AN3-CA, oral, 6 hr after dosing
Protocol: as §2, §3

PI3Kα, sequence (P42336 whole entry, species assumed): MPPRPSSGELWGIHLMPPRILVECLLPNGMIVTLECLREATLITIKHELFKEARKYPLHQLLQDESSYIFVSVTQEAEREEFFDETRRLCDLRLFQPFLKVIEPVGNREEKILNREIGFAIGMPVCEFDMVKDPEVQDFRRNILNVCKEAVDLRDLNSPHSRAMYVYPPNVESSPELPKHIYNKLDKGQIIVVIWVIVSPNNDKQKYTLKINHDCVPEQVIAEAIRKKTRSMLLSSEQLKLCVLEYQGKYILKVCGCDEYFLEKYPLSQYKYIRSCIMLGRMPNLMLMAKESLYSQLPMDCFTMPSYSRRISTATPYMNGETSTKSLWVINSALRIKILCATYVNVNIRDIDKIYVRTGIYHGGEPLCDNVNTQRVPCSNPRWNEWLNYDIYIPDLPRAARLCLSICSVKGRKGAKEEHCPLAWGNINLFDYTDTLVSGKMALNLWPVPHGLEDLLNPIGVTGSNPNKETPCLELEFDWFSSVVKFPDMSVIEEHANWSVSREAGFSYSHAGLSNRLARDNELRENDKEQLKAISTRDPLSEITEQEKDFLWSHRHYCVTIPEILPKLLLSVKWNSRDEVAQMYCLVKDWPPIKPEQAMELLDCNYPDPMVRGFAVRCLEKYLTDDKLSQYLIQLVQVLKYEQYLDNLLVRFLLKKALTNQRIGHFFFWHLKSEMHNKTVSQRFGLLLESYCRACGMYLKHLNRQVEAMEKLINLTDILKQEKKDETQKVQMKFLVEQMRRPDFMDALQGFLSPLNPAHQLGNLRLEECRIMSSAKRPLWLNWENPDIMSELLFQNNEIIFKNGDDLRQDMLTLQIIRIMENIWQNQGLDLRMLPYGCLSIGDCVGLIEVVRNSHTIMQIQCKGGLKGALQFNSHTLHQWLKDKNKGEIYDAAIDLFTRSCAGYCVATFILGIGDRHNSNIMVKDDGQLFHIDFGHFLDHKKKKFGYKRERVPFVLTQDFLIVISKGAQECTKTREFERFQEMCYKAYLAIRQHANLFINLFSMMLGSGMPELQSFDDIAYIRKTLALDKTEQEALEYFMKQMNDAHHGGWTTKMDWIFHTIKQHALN
PI3Kα, sequence (P27986 whole entry partner, species assumed): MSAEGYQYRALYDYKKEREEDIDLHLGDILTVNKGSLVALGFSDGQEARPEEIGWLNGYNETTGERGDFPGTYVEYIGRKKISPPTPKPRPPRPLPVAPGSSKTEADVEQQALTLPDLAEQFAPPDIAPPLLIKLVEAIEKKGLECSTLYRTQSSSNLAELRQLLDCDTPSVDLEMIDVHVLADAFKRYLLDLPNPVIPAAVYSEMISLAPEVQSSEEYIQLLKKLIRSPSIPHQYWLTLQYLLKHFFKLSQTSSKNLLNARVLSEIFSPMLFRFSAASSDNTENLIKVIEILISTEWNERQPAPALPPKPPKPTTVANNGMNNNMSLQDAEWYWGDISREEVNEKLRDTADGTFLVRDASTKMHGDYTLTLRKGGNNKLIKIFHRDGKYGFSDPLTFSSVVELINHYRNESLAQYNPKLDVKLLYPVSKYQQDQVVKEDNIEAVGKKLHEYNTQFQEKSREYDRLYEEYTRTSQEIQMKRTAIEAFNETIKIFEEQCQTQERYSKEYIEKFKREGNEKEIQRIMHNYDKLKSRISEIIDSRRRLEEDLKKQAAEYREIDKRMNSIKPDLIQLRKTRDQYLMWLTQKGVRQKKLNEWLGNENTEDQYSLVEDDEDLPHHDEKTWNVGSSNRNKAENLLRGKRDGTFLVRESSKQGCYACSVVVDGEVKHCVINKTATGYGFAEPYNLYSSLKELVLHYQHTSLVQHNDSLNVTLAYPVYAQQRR

Row | Structure (SMILES) | IC50 (PI3Kα) | GI50 [1] | GI50 [2] | inhibition at 10 mg/kg [3] | inhibition at 10 mg/kg [4]
1 | CC[C@H]1CN(c2nc3c(N4CCOCC4)nc(-c4cnc(N)nc4)nc3n2CC(F)(F)F)CCN1C(C)=O [Example 75, 5-{8-[(3S)-4-Acetyl-3-ethylpiperazin-1-yl]-6-morpholin-4-yl-9-(2,2,2-trifluoroethyl)-9H-purin-2-yl}pyrimidin-2-amine] | < 0.01 µM | ≤ 5 µM | ≤ 5 µM | > 60% | > 90%
2 | CC(C)Cn1c(N2CCN(C(=O)C[C@H](C)O)[C@H](C)C2)nc2c(N3CCOCC3)nc(-c3cnc(N)nc3)nc21 [Example 86, (2S)-4-{(2R)-4-[2-(2-Aminopyrimidin-5-yl)-9-isobutyl-6-morpholin-4-yl-9H-purin-8-yl]-2-methylpiperazin-1-yl}-4-oxobutan-2-ol] | < 0.01 µM | ≤ 5 µM | ≤ 5 µM | > 60% | > 90%
3 | CC(=O)C(=O)N1CCN(c2nc3c(N4CCOCC4)nc(-c4cnc(N)nc4)nc3n2CC(F)(F)F)CC1 [Example 65, 1-{4-[2-(2-Aminopyrimidin-5-yl)-6-morpholin-4-yl-9-(2,2,2-trifluoroethyl)-9H-purin-8-yl]piperazin-1-yl}-1-oxoacetone] | < 0.01 µM | ≤ 5 µM | ≤ 5 µM | 30 to 60% | > 90%
4 | C[C@H]1COCCN1c1nc(-c2cnc(N)nc2)nc2c1nc(N1CCN(S(C)(=O)=O)CC1)n2CC(F)(F)F [Example 127, 5-{6-[(3S)-3-Methylmorpholin-4-yl]-8-[4-(methylsulfonyl)piperazin-1-yl]-9-(2,2,2-trifluoroethyl)-9H-purin-2-yl}pyrimidin-2-amine] | < 0.01 µM | ≤ 5 µM | ≤ 5 µM |  | 
5 | C[C@H](O)C(=O)N1CCN(c2nc3c(N4CCOCC4)nc(-c4cnc(N)nc4)nc3n2CC(F)(F)F)C[C@@H]1C [Example 109, (2S)-1-{(2S)-4-[2-(2-Aminopyrimidin-5-yl)-6-morpholin-4-yl-9-(2,2,2-trifluoroethyl)-9H-purin-8-yl]-2-methylpiperazin-1-yl}-1-oxopropan-2-ol] | < 0.01 µM | ≤ 5 µM | ≤ 5 µM | > 60% | > 90%
6 | CS(=O)(=O)N1CCN(c2nc3c(N4CCOCC4)nc(-c4cnc(N)nc4)nc3n2CC(F)(F)F)CC1 [Example 8, 5-{8-[4-(Methylsulfonyl)piperazin-1-yl]-6-morpholin-4-yl-9-(2,2,2-trifluoroethyl)-9H-purin-2-yl}pyrimidin-2-amine] | < 0.01 µM | ≤ 5 µM | ≤ 5 µM | > 60% | > 90%
7 | CC[C@H]1CN(c2nc3c(N4CCOCC4)nc(-c4cnc(N)nc4)nc3n2CC(F)(F)F)CCN1S(C)(=O)=O [Example 76, 5-{8-[(3S)-3-Ethyl-4-(methylsulfonyl)piperazin-1-yl]-6-morpholin-4-yl-9-(2,2,2-trifluoroethyl)-9H-purin-2-yl}pyrimidin-2-amine] | < 0.01 µM | ≤ 5 µM | ≤ 5 µM | > 60% | > 90%
8 | CC(=O)N1CCN(c2nc3c(N4CCOC[C@@H]4C)nc(-c4cnc(N)nc4C)nc3n2CC2CC2)CC1 [Example 128, 5-{8-(4-acetylpiperazin-1-yl)-9-(cyclopropylmethyl)-6-[(3S)-3-methylmorpholin-4-yl]-9H-purin-2-yl}-4-methylpyrimidin-2-amine] | 0.01 to 0.02 µM | ≤ 5 µM | ≤ 5 µM | 30 to 60% | 
9 | Cc1nc(N)ncc1-c1nc(N2CCOCC2)c2nc(N3CCN(S(C)(=O)=O)CC3)n(CC3CC3)c2n1 [Example 6, 5-{9-(Cyclopropylmethyl)-8-[4-(methylsulfonyl)piperazin-1-yl]-6-morpholin-4-yl-9H-purin-2-yl}-4-methylpyrimidin-2-amine] | < 0.01 µM | ≤ 5 µM | ≤ 5 µM | > 60% | 
10 | CNc1ncc(-c2nc(N3CCOCC3)c3nc(N4CCN(CC(=O)N(C)C)[C@H](C)C4)n(CC(F)(F)F)c3n2)cn1 [Example 87, N,N-Dimethyl-2-[(2R)-2-methyl-4-{2-[2-(methylamino)pyrimidin-5-yl]-6-morpholin-4-yl-9-(2,2,2-trifluoroethyl)-9H-purin-8-yl}piperazin-1-yl]acetamide] | < 0.01 µM | ≤ 5 µM | ≤ 5 µM | > 60% | 
11 | CNc1ncc(-c2nc(N3CCOCC3)c3nc(N4CCN(S(C)(=O)=O)CC4)n(CC(F)(F)F)c3n2)cn1 [Example 11, N-Methyl-5-{8-[4-(methylsulfonyl)piperazin-1-yl]-6-morpholin-4-yl-9-(2,2,2-trifluoroethyl)-9H-purin-2-yl}pyrimidin-2-amine] | 0.01 to 0.02 µM | ≤ 5 µM | ≤ 5 µM |  | 
12 | C[C@@H]1CN(c2nc3c(N4CCOCC4)nc(-c4cnc(N)nc4)nc3n2CC(F)(F)F)C[C@H](C)N1 [Example 14, 5-[8-(cis-3,5-Dimethylpiperazin-1-yl)-6-morpholin-4-yl-9-(2,2,2-trifluoroethyl)-9H-purin-2-yl]pyrimidin-2-amine] | < 0.01 µM | ≤ 5 µM | ≤ 5 µM |  | 
13 | CC(C)Cn1c(N2CCN(S(C)(=O)=O)[C@H](C)C2)nc2c(N3CCOCC3)nc(-c3cnc(N)nc3)nc21 [Example 54, 5-{9-Isobutyl-8-[(3R)-3-methyl-4-(methylsulfonyl)piperazin-1-yl]-6-morpholin-4-yl-9H-purin-2-yl}pyrimidin-2-amine] | 0.01 to 0.02 µM | ≤ 5 µM | ≤ 5 µM | 30 to 60% | 
14 | CC(=O)N1CCN(c2nc3c(N4CCOCC4)nc(-c4cnc(N)nc4)nc3n2CC2CC2)CC1 [Example 10, 5-[8-(4-Acetylpiperazin-1-yl)-9-(cyclopropylmethyl)-6-morpholin-4-yl-9H-purin-2-yl]pyrimidin-2-amine] | < 0.01 µM | ≤ 5 µM | ≤ 5 µM |  | 
15 | CC(C)Cn1c(N2CCN(S(C)(=O)=O)[C@@H](C)C2)nc2c(N3CCOCC3)nc(-c3cnc(N)nc3)nc21 [Example 53, 5-{9-Isobutyl-8-[(3S)-3-methyl-4-(methylsulfonyl)piperazin-1-yl]-6-morpholin-4-yl-9H-purin-2-yl}pyrimidin-2-amine] | 0.01 to 0.02 µM | ≤ 5 µM | ≤ 5 µM | 30 to 60% | 
16 | CC(C)Cn1c(N2CCN(C(=O)CN(C)C)CC2)nc2c(N3CCOCC3)nc(-c3cnc(N)nc3)nc21 [Example 55, 5-(8-{4-[(Dimethylamino)acetyl]piperazin-1-yl}-9-isobutyl-6-morpholin-4-yl-9H-purin-2-yl)pyrimidin-2-amine] | < 0.01 µM | ≤ 5 µM | ≤ 5 µM |  | 
17 | CC(=O)N1CCN(c2nc3c(N4CCOC[C@@H]4C)nc(-c4cnc(N)nc4)nc3n2CC(C)C)CC1 [Example 129, 5-{8-(4-Acetylpiperazin-1-yl)-9-isobutyl-6-[(3S)-3-methylmorpholin-4-yl]-9H-purin-2-yl}pyrimidin-2-amine] | 0.01 to 0.02 µM | ≤ 5 µM | ≤ 5 µM |  | 70 to 90%
18 | CC(=O)N1CCN(c2nc3c(N4CCOCC4)nc(-c4cnc(N)nc4)nc3n2CC(C)C)C[C@H]1C [Example 99, 5-{8-[(3R)-4-Acetyl-3-methylpiperazin-1-yl]-9-isobutyl-6-morpholin-4-yl-9H-purin-2-yl}pyrimidin-2-amine] | 0.01 to 0.02 µM | ≤ 5 µM | ≤ 5 µM | 30 to 60% | 
19 | CC(C)Cn1c(N2CCN(S(C)(=O)=O)CC2)nc2c(N3CCOCC3)nc(-c3cnc(N)nc3)nc21 [Example 1, 5-{9-Isobutyl-8-[4-(methylsulfonyl)piperazin-1-yl]-6-morpholin-4-yl-9H-purin-2-yl}pyrimidin-2-amine] | 0.01 to 0.02 µM | ≤ 5 µM | ≤ 5 µM |  | 
20 | CC(=O)N1CCN(c2nc3c(N4CCOCC4)nc(-c4cnc(N)nc4)nc3n2CC(C)C)CC1 [Example 2, 5-[8-(4-Acetylpiperazin-1-yl)-9-isobutyl-6-morpholin-4-yl-9H-purin-2-yl]pyrimidin-2-amine] | 0.01 to 0.02 µM | ≤ 5 µM | ≤ 5 µM |  | 
